Source: patent US11725000B2, “Apoptosis inhibitors” (National Institute of Biological Sciences, Beijing, priority 2017, dated 2023)
pEC50: −log10 of the molar value.

The compounds below were run on U2OS_Bim cells (assay: Apoptosis inhibition assay (Bim-induced apoptosis, cell viability by ATP level)). Conditions: U2OS_Bim cells, DOX-induced Bim overexpression, viability 24 h after DOX; read-out: EC50.
Assay type: cell-based
In short: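 Apoptosis was triggered by doxycycline (0.1 μg/mL) induction of Bim, one hour after compound addition to U2OS_Bim cells. Survival was measured after 24 h from cellular ATP (CellTiter-Glo), relative to DMSO, with zVAD at 20 μM as rescue control. Data are duplicate means, some estimated from preliminary results.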

pEC50 | Structure (SMILES)
9.38 | COc1ccc(Cn2cc(-c3cc(C(F)(F)F)nc(S(=O)(=O)CCCC(=O)NC45CC6CC(CC(C6)C4)C5)n3)ccc2=O)cc1OC [Compound 289]

Same assay, conditions: U2OS_Bim cells; means of duplicates; numbering of Tables 4a/4b; read-out: EC50

pEC50 | Structure (SMILES)
6.00 to 9.00 | COc1ccc(Cn2cc(-c3cc(C(F)F)nc(S(=O)(=O)CCC(OCc4ccccc4)c4ccccc4)n3)ccc2=O)cc1OC (stereo not drawn) [Compound 278, 5-(2-((3-(benzyloxy)-3-phenylpropyl)sulfonyl)-6-(difluoromethyl)pyrimidin-4-yl)-1-(3,4-dimethoxybenzyl)pyridin-2 (1H)-one]
6.00 to 9.00 | COc1ccc(Cn2cc(-c3cc(C(F)F)nc(S(=O)(=O)CCC(Cl)c4ccccc4)n3)ccc2=O)cc1OC (stereo not drawn) [Compound 279, 5-(2-((3-chloro-3-phenylpropyl)sulfonyl)-6-(difluoromethyl)pyrimidin-4-yl)-1-(3,4-dimethoxybenzyl)pyridin-2 (1H)-one]
6.00 to 9.00 | COc1ccc(Cn2cc(-c3cc(C(F)(F)F)nc([S+]([O-])CCC(OCc4ccccc4)c4ccccc4)n3)ccc2=O)cc1OC (stereo not drawn) [Compound 280, 5-(2-((3-(benzyloxy)-3-phenylpropyl)sulfinyl)-6-(trifluoromethyl)pyrimidin-4-yl)-1-(3,4-dimethoxybenzyl)pyridin-2 (1H)-one]
6.00 to 9.00 | COc1ccc(Cn2cc(-c3cc(C(F)(F)F)nc(S(=O)(=O)CCC(OCc4ccccc4)c4ccccc4)n3)ccc2=O)cc1OC (stereo not drawn) [Compound 281, 5-(2-((3-(benzyloxy)-3-phenylpropyl)sulfonyl)-6-(trifluoromethyl)pyrimidin-4-yl)-1-(3,4-dimethoxybenzyl)pyridin-2 (1H)-one]
6.00 to 9.00 | COc1ccc(Cn2cc(-c3cc(CF)nc(S(=O)(=O)CCC(OCc4ccccc4)c4ccccc4)n3)ccc2=O)cc1OC (stereo not drawn) [Compound 282, 5-(2-((3-(benzyloxy)-3-phenylpropyl)sulfonyl)-6-(fluoromethyl)pyrimidin-4-yl)-1-(3,4-dimethoxybenzyl)pyridin-2 (1H)-one]
6.00 to 9.00 | COc1ccc(Cn2cc(-c3cc(C(F)F)nc([S+]([O-])CCC(OCc4ccccc4F)c4ccccc4)n3)ccc2=O)cc1F (stereo not drawn) [Compound 283, 5-(6-(difluoromethyl)-2-(3-(2-fluorobenzyloxy)-3-phenylpropylsulfinyl)pyrimidin-4-yl)-1-(3-fluoro-4-methoxybenzyl)pyridin-2 (1H)-one]
6.00 to 9.00 | COc1ccc(Cn2cc(-c3cc(C(F)F)nc(S(=O)(=O)CCC(OCc4ccccc4F)c4ccccc4)n3)ccc2=O)cc1F (stereo not drawn) [Compound 284, 5-(6-(difluoromethyl)-2-(3-(2-fluorobenzyloxy)-3-phenylpropylsulfonyl)pyrimidin-4-yl)-1-(3-fluoro-4-methoxybenzyl)pyridin-2 (1H)-one]
6.00 to 9.00 | COc1ccc(Cn2cc(-c3cc(C(F)F)nc(S(=O)(=O)CCC(OCc4ccc(F)cc4F)c4ccccc4)n3)ccc2=O)cc1F (stereo not drawn) [Compound 286, 5-(2-(3-(2,4-difluorobenzyloxy)-3-phenylpropylsulfonyl)-6-(difluoromethyl)pyrimidin-4-yl)-1-(3-fluoro-4-methoxybenzyl)pyridin-2 (1H)-one]
6.00 to 9.00 | COc1ccc(Cn2cc(-c3cc(C(F)F)nc(S(=O)(=O)CCC(O)c4ccccc4)n3)ccc2=O)cc1F (stereo not drawn) [Compound 287, 5-(6-(difluoromethyl)-2-((3-hydroxy-3-phenylpropyl)sulfonyl)pyrimidin-4-yl)-1-(3-fluoro-4-methoxybenzyl)pyridin-2 (1H)-one]
6.00 to 9.00 | COc1ccc(Cn2cc(-c3cc(C(F)F)nc(S(=O)(=O)CCCC(=O)NC45CC6CC(CC(C6)C4)C5)n3)ccc2=O)cc1OC [Compound 288, N-((3s,5s,7s)-adamantan-1-yl)-4-((4-(difluoromethyl)-6-(1-(3,4-dimethoxybenzyl)-6-oxo-1,6-dihydropyridin-3-yl)pyrimidin-2-yl)sulfonyl)butanamide]
6.00 to 9.00 | COc1ccc(Cn2cc(-c3cc(C(F)(F)F)nc(S(=O)(=O)CCCC(=O)NC45CC6CC(CC(C6)C4)C5)n3)ccc2=O)cc1OC [Compound 289]
5.00 to 6.00 | [O-][S+](CCC(OCc1ccccc1)c1ccccc1)c1nc(-c2cccs2)cc(C(F)(F)F)n1 (stereo not drawn) [Compound 290, 2-(3-(benzyloxy)-3-phenylpropylsulfinyl)-4-(thiophen-2-yl)-6-(trifluoromethyl)pyrimidine]
5.00 to 6.00 | O=S(=O)(CCC(OCc1ccccc1)c1ccccc1)c1nc(-c2cccs2)cc(C(F)(F)F)n1 (stereo not drawn) [Compound 291, 2-(3-(benzyloxy)-3-phenylpropylsulfonyl)-4-(thiophen-2-yl)-6-(trifluoromethyl)pyrimidine]
5.00 to 6.00 | O=S(=O)(CCC(Cl)c1ccccc1)c1nc(-c2cccs2)cc(C(F)(F)F)n1 (stereo not drawn) [Compound 292, 2-((3-chloro-3-phenylpropyl)sulfonyl)-4-(thiophen-2-yl)-6-(trifluoromethyl)pyrimidine]
6.00 to 9.00 | COc1ccc(Cn2cc(-c3nc(S(=O)(=O)CCC(OCc4ccccc4)c4ccccc4)nc4ccccc34)ccc2=O)cc1OC (stereo not drawn) [Compound 293, 5-(2-((3-(benzyloxy)-3-phenylpropyl)sulfonyl)quinazolin-4-yl)-1-(3,4-dimethoxybenzyl)pyridin-2 (1H)-one]
6.00 to 9.00 | COc1ccc(Cn2cc(-c3cc(C)nc([S+]([O-])CCC(OCc4ccccc4)c4ccccc4)n3)ccc2=O)cc1OC (stereo not drawn) [Compound 294, 5-(2-(3-(benzyloxy)-3-phenylpropylsulfinyl)-6-methylpyrimidin-4-yl)-1-(3,4-dimethoxybenzyl)pyridin-2 (1H)-one]
6.00 to 9.00 | COc1ccc(Cn2cc(-c3cc(C)nc(S(=O)(=O)CCC(OCc4ccccc4)c4ccccc4)n3)ccc2=O)cc1OC (stereo not drawn) [Compound 295, 5-(2-(3-(benzyloxy)-3-phenylpropylsulfonyl)-6-methylpyrimidin-4-yl)-1-(3,4-dimethoxybenzyl)pyridin-2 (1H)-one]
5.00 to 6.00 | COc1ccc(Cn2cc(-c3cc(-c4ccccc4F)nc(S(C)(=O)=O)n3)ccc2=O)cc1OC [Compound 296, 1-(3,4-dimethoxybenzyl)-5-(6-(2-fluorophenyl)-2-(methylsulfonyl)pyrimidin-4-yl)pyridin-2 (1H)-one]
> 4.00 | COc1ccc(Cn2cc(-c3cc(-c4ccccc4F)nc([S+]([O-])CCC(OCc4ccccc4)c4ccccc4)n3)ccc2=O)cc1OC (stereo not drawn) [Compound 297, 5-(2-((3-(benzyloxy)-3-phenylpropyl)sulfinyl)-6-(2-fluorophenyl)pyrimidin-4-yl)-1-(3,4-dimethoxybenzyl)pyridin-2 (1H)-one]
> 4.00 | COc1ccc(Cn2cc(-c3cc(-c4ccccc4F)nc(S(=O)(=O)CCC(OCc4ccccc4)c4ccccc4)n3)ccc2=O)cc1OC (stereo not drawn) [Compound 298, 5-(2-((3-(benzyloxy)-3-phenylpropyl)sulfonyl)-6-(2-fluorophenyl)pyrimidin-4-yl)-1-(3,4-dimethoxybenzyl)pyridin-2 (1H)-one]
> 4.00 | COc1ccc(Cn2cc(-c3cc(-c4cccs4)nc([S+]([O-])CCC(OCc4ccccc4)c4ccccc4)n3)ccc2=O)cc1OC (stereo not drawn) [Compound 299, 5-(2-((3-(benzyloxy)-3-phenylpropyl)sulfinyl)-6-(thiophen-2-yl)pyrimidin-4-yl)-1-(3,4-dimethoxybenzyl)pyridin-2 (1H)-one]
6.00 to 9.00 | COc1ccc(Cn2cc(-c3cc(-c4cccs4)nc(S(=O)(=O)CCC(OCc4ccccc4)c4ccccc4)n3)ccc2=O)cc1OC (stereo not drawn) [Compound 300, 5-(2-((3-(benzyloxy)-3-phenylpropyl)sulfonyl)-6-(thiophen-2-yl)pyrimidin-4-yl)-1-(3,4-dimethoxybenzyl)pyridin-2 (1H)-one]
5.00 to 6.00 | COc1ccc(Cn2cc(-c3nc([S+]([O-])CCC(OCc4ccccc4F)c4ccccc4)nc4sccc34)cc(F)c2=O)cc1F (stereo not drawn) [Compound 301, 3-fluoro-1-(3-fluoro-4-methoxybenzyl)-5-(2-(3-(2-fluorobenzyloxy)-3-phenylpropylsulfinyl)thieno[2,3-d]pyrimidin-4-yl)pyridin-2 (1H)-one]
6.00 to 9.00 | COc1ccc(Cn2cc(-c3nc(S(=O)(=O)CCC(OCc4ccccc4F)c4ccccc4)nc4sccc34)cc(F)c2=O)cc1F (stereo not drawn) [Compound 302, 3-fluoro-1-(3-fluoro-4-methoxybenzyl)-5-(2-(3-(2-fluorobenzyloxy)-3-phenylpropylsulfonyl)thieno[2,3-d]pyrimidin-4-yl)pyridin-2 (1H)-one]
> 4.00 | COc1ccc(Cn2cc(-c3cc(C)nc(S(=O)(=O)CCC(C)=O)n3)cc(F)c2=O)cc1F [Compound 303, 3-fluoro-1-(3-fluoro-4-methoxybenzyl)-5-(6-methyl-2-((3-oxobutyl)sulfonyl)pyrimidin-4-yl)pyridin-2 (1H)-one]
> 4.00 | COc1ccc(Cn2cc(-c3cc(C)nc([S+]([O-])CCC(C)OCc4ccccc4F)n3)cc(F)c2=O)cc1F (stereo not drawn) [Compound 304, 3-fluoro-1-(3-fluoro-4-methoxybenzyl)-5-(2-((3-((2-fluorobenzyl)oxy)butyl)sulfinyl)-6-methylpyrimidin-4-yl)pyridin-2 (1H)-one]
6.00 to 9.00 | COc1ccc(Cn2cc(-c3cc(C)nc(S(=O)(=O)CCC(C)OCc4ccccc4F)n3)cc(F)c2=O)cc1F (stereo not drawn) [Compound 305, 3-fluoro-1-(3-fluoro-4-methoxybenzyl)-5-(2-((3-((2-fluorobenzyl)oxy)butyl)sulfonyl)-6-methylpyrimidin-4-yl)pyridin-2 (1H)-one]
6.00 to 9.00 | Cc1cc(-c2cnc(=O)n(Cc3ccc4c(c3)OCO4)c2)nc(S(=O)(=O)CCC(OCc2ccccc2F)c2ccccc2)n1 (stereo not drawn) [Compound 307, 1′-(benzo[d][1,3]dioxol-5-ylmethyl)-2-((3-((2-fluorobenzyl)oxy)-3-phenylpropyl)sulfonyl)-6-methyl-[4,5′-bipyrimidin]-2′(1′H)-one]
> 4.00 | Cc1cc(-c2cc(F)c(=O)n(CC3CCCCC3)c2)nc([S+]([O-])CCC(OCc2ccc(F)cc2F)c2ccccc2)n1 (stereo not drawn) [Compound 308, 1-(cyclohexylmethyl)-5-(2-(3-(2,4-difluorobenzyloxy)-3-phenylpropylsulfinyl)-6-methylpyrimidin-4-yl)-3-fluoropyridin-2 (1H)-one]
